molecular target: T1, hMAO-A (Homo sapiens, UniProt P21397); assay: MAO-A inhibition assay; assay type: biochemical; settings: up to 10 μM; No = no inhibition; printed in the IC50 hMAO-A column
T1 construct: purchased Sigma M7316
T1 sequence (P21397 1-527): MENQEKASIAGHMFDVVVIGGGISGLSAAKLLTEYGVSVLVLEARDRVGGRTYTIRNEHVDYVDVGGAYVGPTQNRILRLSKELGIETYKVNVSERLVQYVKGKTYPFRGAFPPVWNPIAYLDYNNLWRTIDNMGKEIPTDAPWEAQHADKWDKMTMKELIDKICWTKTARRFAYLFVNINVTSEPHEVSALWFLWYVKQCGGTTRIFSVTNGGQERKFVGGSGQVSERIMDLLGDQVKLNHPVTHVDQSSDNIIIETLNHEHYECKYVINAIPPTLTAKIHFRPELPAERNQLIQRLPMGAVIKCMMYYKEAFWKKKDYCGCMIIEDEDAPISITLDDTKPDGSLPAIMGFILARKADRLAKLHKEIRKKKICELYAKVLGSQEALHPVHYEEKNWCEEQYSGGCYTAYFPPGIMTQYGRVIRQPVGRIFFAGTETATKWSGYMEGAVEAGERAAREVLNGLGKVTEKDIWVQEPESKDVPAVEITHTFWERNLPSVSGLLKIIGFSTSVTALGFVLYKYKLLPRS
Method: MAO-A (Sigma M7316) and MAO-B (Sigma M7441) inhibition assays were conducted in 96-well micro-plates according to the method described by Zhou et al. [Analytical Biochemistry 253, 169-174, 1997]. […] Reactions were initiated by the addition of a pre-mixed solution of tyramine, horseradish peroxidase and Amplex Red, and were allowed to proceed at 37° C. for 30 min. Enzyme activities were determined by measuring absorbance at 570 nm (SpectralMax Plate reader), absorbance of oxidized Amplex Red generated by this horseradish peroxidase-coupled reaction. Nonspecifically formed products were determined in the presence of 2 and 10 µM clorgyline and deprenyl for MAO-A and MAO-B, respectively. IC50 values were determined by fitting concentration-inhibition data to sigmoidal dose-response curves with two-floating parameters: IC50 and Hill coefficient.

Q: Cc1nc(-c2ccc(C(F)(F)F)cc2)sc1COc1ccc2c(=O)c(-c3ccc(NS(C)(=O)=O)cc3)coc2c1 [PT-66, 3-{4-[(methylsulfonyl)amino]phenyl}-7-({4-methyl-2-[4-(trifluoromethyl)phenyl](1,3-thiazol-5-yl)}methoxy)chromen-4-one] was tested. Which “hMAO-A inhibition up to 10 μM” value did it give?
A: Its value is “No”.

Q: Which “hMAO-A inhibition up to 10 μM” value does the source give for CS(=O)(=O)Nc1ccc(-c2c(O)oc3cc(OCc4cccc(C(=O)O)c4)ccc3c2=O)cc1 [PT-111, 3-[(2-hydroxy-3-{4-[(methylsulfonyl)amino]phenyl}-4-oxochromen-7-yloxy)methyl]-benzoic acid] here?
A: The value was “No”.

Q: With O=C(O)c1coc(COc2ccc3c(=O)c(-c4ccc(O)cc4)coc3c2)n1 [PT-102, 2-{[3-(4-hydroxyphenyl)-4-oxochromen-7-yloxy]methyl}-1,3-oxazole-4-carboxylic acid] as the molecule, how does the “hMAO-A inhibition up to 10 μM” value read?
A: Its value is “No”.

Q: With N#Cc1ccc(-c2coc3cc(OCc4cc(-c5cccc(C(F)(F)F)c5)no4)ccc3c2=O)cc1 [PT-69, 4-[4-oxo-7-({3-[3-(trifluoromethyl)phenyl]isoxazol-5-yl}methoxy)chromen-3-yl]benzenecarbonitrile] as the molecule, how does the “hMAO-A inhibition up to 10 μM” value read?
A: The value was “No”.

Q: O=c1c(-c2ccc(O)cc2)coc2cc(OCc3nnc(-c4cccc(F)c4)o3)ccc12 [PT-58, 7-{[5-(3-fluorophenyl)(1,3,4-oxadiazol-2-yl)]methoxy}-3-(4-hydroxyphenyl)chromen-4-one] was tested. Which “hMAO-A inhibition up to 10 μM” value did it give?
A: Its value is “No”.

Q: With O=c1c(-c2ccc(O)cc2)coc2cc(OCCOc3ccc(Cl)cc3)ccc12 [PT-89, 7-[2-(4-chlorophenoxy)ethoxy]-3-(4-hydroxyphenyl)chromen-4-one] as the molecule, how does the “hMAO-A inhibition up to 10 μM” value read?
A: Its value is 34%.

Q: With O=c1c(-c2ccc(O)cc2)coc2cc(OCc3cnc(-c4ccccc4)o3)ccc12 [PT-61, 3-(4-hydroxyphenyl)-7-[(2-phenyl(1,3-oxazol-5-yl))methoxy]chromen-4-one] as the molecule, how does the “hMAO-A inhibition up to 10 μM” value read?
A: Its value is “No”.

Q: For O=c1c(-c2ccc(O)cc2)coc2cc(OCCCc3ccccc3)ccc12 [PT-57, 3-(4-hydroxyphenyl)-7-(3-phenylpropoxy)chromen-4-one], which “hMAO-A inhibition up to 10 μM” value is on record?
A: Its value is “No”.

Q: For O=c1c(-c2ccc(O)cc2)coc2cc(OCCNCc3cccc(C(F)(F)F)c3)ccc12 [PT-99, 3-(4-hydroxyphenyl)-7-[2-({[3-(trifluoromethyl)phenyl]methyl}amino)ethoxy]chromen-4-one], which “hMAO-A inhibition up to 10 μM” value is on record?
A: The value was “No”.

Q: CC(=O)c1cccc(-c2coc3cc(OCc4noc(-c5cc(F)cc(C(F)(F)F)c5)n4)ccc3c2=O)c1 [PT-73, 3-(3-acetylphenyl)-7-({5-[3-fluoro-5-(trifluoromethyl)phenyl](1,2,4-oxadiazol-3-yl)}methoxy)chromen-4-one] was tested. Which “hMAO-A inhibition up to 10 μM” value did it give?
A: The value was “No”.

Q: O=C(COc1ccc2c(=O)c(-c3ccc(O)cc3)coc2c1)Nc1ccccc1C(F)(F)F [PT-84, 2-[3-(4-hydroxyphenyl)-4-oxochromen-7-yloxy]-N-[2-(trifluoromethyl)phenyl]-acetamide] was tested. Which “hMAO-A inhibition up to 10 μM” value did it give?
A: The value was “No”.

Q: With O=c1c(-c2ccc(O)cc2)coc2cc(OCNCc3cccc(C(F)(F)F)c3)ccc12 [PT-54, 3-(4-hydroxyphenyl)-7-[({[3-(trifluoromethyl)phenyl]methyl}amino)methoxy]chromen-4-one] as the molecule, how does the “hMAO-A inhibition up to 10 μM” value read?
A: Its value is “No”.

Q: For C[C@@H](NCC(=O)COc1ccc2c(=O)c(-c3ccc(O)cc3)coc2c1)c1ccc(F)cc1 [PT-56, 7-(3-{[(1R)-1-(4-fluorophenyl)ethyl]amino}-2-oxopropoxy)-3-(4-hydroxyphenyl)chromen-4-one], which “hMAO-A inhibition up to 10 μM” value is on record?
A: The value was 36%.

Q: With O=c1c(-c2ccc(O)cc2)coc2cc(OCc3ccncc3)ccc12 [PT-82, 3-(4-hydxoxyphenyl)-7-(4-pyridylmethoxy)chromen-4-one] as the molecule, how does the “hMAO-A inhibition up to 10 μM” value read?
A: Its value is “No”.

Q: How did the “hMAO-A inhibition up to 10 μM” value turn out when O=C(O)c1cnc(COc2ccc3c(=O)c(-c4ccc(O)cc4)coc3c2)o1 [PT-49, 2-{[3-(4-hydroxyphenyl)-4-oxochromen-7-yloxy]methyl}-1,3-oxazole-5-carboxylic acid] was run?
A: The value was “No”.

Q: With C[C@H](NC(=O)COc1ccc2c(=O)c(-c3ccc(O)cc3)coc2c1)c1ccc(F)cc1 [PT-103, N-[(1S)-1-(4-fluorophenyl)ethyl]-2-[3-(4-hydroxyphenyl)-4-oxochromen-7-yloxy]acetamide] as the molecule, how does the “hMAO-A inhibition up to 10 μM” value read?
A: The value was 36%.

Q: With CS(=O)(=O)c1ccc(-c2coc3cc(OCc4noc(-c5cc(F)cc(C(F)(F)F)c5)n4)ccc3c2=O)cc1 [PT-71, 7-({5-[3-fluoro-5-(trifluoromethyl)phenyl](1,2,4-oxadiazol-3-yl)}methoxy)-3-[4-(methylsulfonyl)phenyl]chromen-4-one] as the molecule, how does the “hMAO-A inhibition up to 10 μM” value read?
A: Its value is “No”.

Q: With COC(=O)c1cnc(COc2ccc3c(=O)c(-c4ccc(O)cc4)coc3c2)o1 [PT-47, methyl 2-{[3-(4-hydroxyphenyl)-4-oxochromen-7-yloxy]methyl}-1,3-oxazole-5-carboxylate] as the molecule, how does the “hMAO-A inhibition up to 10 μM” value read?
A: Its value is “No”.

Q: How did the “hMAO-A inhibition up to 10 μM” value turn out when Cc1nc(-c2ccc(C(F)(F)F)cc2)sc1COc1ccc2c(=O)c(-c3ccc(C#N)cc3)coc2c1 [PT-65, 4-[7-({4-methyl-2-[4-(trifluoromethyl)phenyl](1,3-thiazol-5-yl)}methoxy)-4-oxochromen-3-yl]benzenecarbonitrile] was run?
A: Its value is “No”.

Q: Which “hMAO-A inhibition up to 10 μM” value does the source give for CS(=O)(=O)Nc1ccc(-c2coc3cc(OCc4noc(-c5cc(F)cc(C(F)(F)F)c5)n4)ccc3c2=O)cc1 [PT-70, 7-({5-[3-fluoro-5-(trifluoromethyl)phenyl](1,2,4-oxadiazol-3-yl)}methoxy)-3-{4-[(methylsulfonyl)amino]phenyl}chromen-4-one] here?
A: Its value is “No”.

Q: Which “hMAO-A inhibition up to 10 μM” value does the source give for O=c1c(-c2ccc(O)cc2)coc2cc(OC[C@H](O)Cc3ccccc3)ccc12 [PT-109, 7-((2R)-2-hydroxy-3-phenylpropoxy)-3-(4-hydroxyphenyl)chromen-4-one] here?
A: The value was 26%.

Q: For O=c1c(-c2ccc(O)cc2)coc2cc(OCc3cc(-c4cccc(C(F)(F)F)c4)on3)ccc12 [PT-45, 3-(4-hydroxyphenyl)-7-({5-[3-(trifluoromethyl)phenyl]isoxazol-3-yl}methoxy)chromen-4-one], which “hMAO-A inhibition up to 10 μM” value is on record?
A: The value was “No”.

Q: O=c1c(-c2ccc(O)cc2)coc2cc(OCc3nnc(-c4ccccc4Cl)s3)ccc12 [PT-64, 7-{[5-(2-chlorophenyl)(1,3,4-thiadiazol-2-yl)]methoxy}-3-(4-hydroxyphenyl)chromen-4-one] was tested. Which “hMAO-A inhibition up to 10 μM” value did it give?
A: The value was “No”.

Q: Which “hMAO-A inhibition up to 10 μM” value does the source give for N#Cc1ccc(-c2coc3cc(OCc4nnc(-c5cc(F)cc(C(F)(F)F)c5)o4)ccc3c2=O)cc1 [PT-68, 4-[7-({5-[5-fluoro-3-(trifluoromethyl)phenyl](1,3,4-oxadiazol-2-yl)}methoxy)-4-oxochromen-3-yl]benzenecarbonitrile] here?
A: The value was “No”.

Q: How did the “hMAO-A inhibition up to 10 μM” value turn out when O=c1c(-c2ccc(O)cc2)coc2cc(OCc3ccccn3)ccc12 [PT-91, 3-(4-hydroxyphenyl)-7-(2-pyridylmethoxy)chromen-4-one] was run?
A: The value was “No”.

same assay, conditions: up to 30 μM; No = no inhibition

Q: For COC(=O)c1cccc(COc2ccc3c(=O)c(-c4ccc(O)cc4)coc3c2)c1 [PT-33, methyl 3-{[3-(4-hydroxyphenyl)-4-oxochromen-7-yloxy]methyl}benzoate], which “hMAO-A inhibition up to 30 μM” value is on record?
A: Its value is “No”.
